Data taken from ChEMBL document CHEMBL1201862, “PubChem BioAssay data set” (2004).
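Exposure lasted 48 hours, with cells grown in 96-well plates and compounds tested at five concentrations. GI50 marks 50% less growth.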 Calls of active or inactive are those of the source. No stated cut-off is given here; in the data, active = GI50 up to about 1.1 µM and inactive = higher.

What was measured:
Experiment in all cases: growth of human tumour cells (NCI), 48 h
HOP-18 = tested on: HOP-18
KM-20L2 = tested on: KM-20L2
LXFL 529 = tested on: LXFL 529
M19-MEL = tested on: M19-MEL
RXF 631 = tested on: RXF 631
XF498 = tested on: XF498
BT-549 = tested on: BT-549
DU-145 = tested on: DU-145
MDA-MB-231 = tested on: MDA-MB-231

Row | Structure (SMILES) | GI50 (HOP-18) | GI50 (KM-20L2) | GI50 (LXFL 529) | GI50 (M19-MEL) | GI50 (RXF 631) | GI50 (XF498) | GI50 (BT-549) | GI50 (DU-145) | GI50 (MDA-MB-231)
1 | CCCCCCCCCCCCCCCCCC(=O)NCCCNCCCNC(=O)CCCCCCCCCCCCCCCCC | > 100 µM (inactive) | > 100 µM (inactive) | > 100 µM (inactive) | > 100 µM (inactive) | > 100 µM (inactive) | – | – | – | –
2 | C=CCCCN1CCCC(C)C1=S (stereo not given) | > 100 µM (inactive) | > 100 µM (inactive) | – | > 100 µM (inactive) | > 100 µM (inactive) | > 100 µM (inactive) | – | – | –
3 | O=[N+]([O-])c1ccc2c(c1)OCCOCCOc1ccc([N+](=O)[O-])cc1OCCOCCO2 | – | 50.9 µM (inactive) | – | – | – | – | – | – | –
4 | COc1ccc2c3c(n(Cc4ccccc4)c(=O)c2c1)-c1cc(OC)c(OC)cc1C3C (stereo not given) | 28.3 µM (inactive) | 25.6 µM (inactive) | 10.4 µM (inactive) | 31.4 µM (inactive) | 15.1 µM (inactive) | 7.96 µM (inactive) | – | – | –
5 | Clc1ccc(C2=NOC3C4CCC(C4)C23)cc1 (stereo not given) | > 100 µM (inactive) | – | > 100 µM (inactive) | > 100 µM (inactive) | – | – | – | – | –
6 | COP1(=O)CC2C(Cl)(Cl)C2(C)C1 (stereo not given) | > 100 µM (inactive) | > 100 µM (inactive) | > 100 µM (inactive) | > 100 µM (inactive) | – | > 100 µM (inactive) | – | – | –
7 | O=C1C2=C(CCCC2)Nc2cccc3ncn1c23 | 10.3 µM (inactive) | > 100 µM (inactive) | > 100 µM (inactive) | > 100 µM (inactive) | – | – | – | – | –
8 | Cc1c(C(Cc2ccccc2N(C)C(=O)/C=C\C(=O)O)c2c[nH]c3ccccc23)c2ccccc2n1C (stereo not given) | – | 18.1 µM (inactive) | 12.7 µM (inactive) | 15.7 µM (inactive) | 14.2 µM (inactive) | 21 µM (inactive) | – | – | –
9 | CC(C)(C)c1cc(CCC(=O)Nc2ccc(Cl)cc2)nc(S)n1 | > 100 µM (inactive) | > 100 µM (inactive) | > 100 µM (inactive) | > 100 µM (inactive) | > 100 µM (inactive) | > 100 µM (inactive) | – | – | –
10 | CN(c1ccccc1)c1cc2ccccc2nn1 | > 100 µM (inactive) | > 100 µM (inactive) | 56.1 µM (inactive) | 59.2 µM (inactive) | 34.1 µM (inactive) | 67 µM (inactive) | – | – | –
11 | COc1ccc(/C=C2/C[N+](C)(C)C/C(=C/c3ccc(OC)cc3)C2=O)cc1 | > 100 µM (inactive) | 50 µM (inactive) | 21.9 µM (inactive) | 23.6 µM (inactive) | – | 88.7 µM (inactive) | – | – | –
12 | CC(=O)OC1=C2CC3(C)OC(=O)CC(C)(C)C3=CC=C2C=C(C(C)C)C1=O (stereo not given) | 1.16 µM (inactive) | 1.62 µM (inactive) | 0.157 µM (active) | 0.526 µM (active) | 0.723 µM (active) | – | – | – | –
13 | NC(Cc1ccccc1)C(=O)OCN1C(=O)C2C3C=CC(C2C1=O)C1C2C(=O)N(COC(=O)C(N)Cc4ccccc4)C(=O)C2C31 (stereo not given) | – | 23.9 µM (inactive) | 20.5 µM (inactive) | – | – | – | – | – | –
14 | CCOC(=O)NC(=O)c1cn(CC(=O)NCC(=O)NCC(=O)N2CCN(CCn3c(C)nc(C(N)=O)c3N)CC2)c(=O)[nH]c1=O | > 100 µM (inactive) | > 100 µM (inactive) | > 100 µM (inactive) | > 100 µM (inactive) | > 100 µM (inactive) | > 100 µM (inactive) | – | – | –
15 | O=C1C=Cc2ncccc2C1=O | > 52 µM (inactive) | > 45.9 µM (inactive) | 16.5 µM (inactive) | – | 21.4 µM (inactive) | 24.6 µM (inactive) | – | – | –
16 | Cc1cc2c(cc1C)[n+]([O-])c(C(=O)/C=C/c1ccc(Cl)cc1)c(C)[n+]2[O-] | 25.2 µM (inactive) | 36.6 µM (inactive) | 28.2 µM (inactive) | 35.3 µM (inactive) | – | 21.6 µM (inactive) | – | – | –
17 | O=C(Nc1ccccc1Br)c1cccc([N+](=O)[O-])c1O | 1.66 µM (inactive) | 4.09 µM (inactive) | 3.15 µM (inactive) | 2.51 µM (inactive) | 17.7 µM (inactive) | – | – | – | –
18 | Brc1ccc(/N=c2/nc3ccccn3n3nc(-c4ccccc4)cc23)cc1 | 29.6 µM (inactive) | 66.4 µM (inactive) | 56.8 µM (inactive) | 43.6 µM (inactive) | 31.6 µM (inactive) | 10.3 µM (inactive) | – | – | –

Row | Structure (SMILES) | GI50 (HOP-18) | GI50 (KM-20L2) | GI50 (LXFL 529) | GI50 (M19-MEL) | GI50 (RXF 631) | GI50 (XF498) | GI50 (BT-549) | GI50 (DU-145) | GI50 (MDA-MB-231)
19 | [N-]=[N+]=NC1CC(n2cc(COCC(F)(F)F)c(=O)[nH]c2=O)OC1CO (stereo not given) | – | > 100 µM (inactive) | > 100 µM (inactive) | > 100 µM (inactive) | – | > 100 µM (inactive) | – | – | –
20 | C=C1c2[nH]c3ccccc3c2CC(C(=O)O)N1C(O)c1ccc(S(=O)(=O)O)cc1 (stereo not given) | – | – | > 100 µM (inactive) | > 100 µM (inactive) | > 100 µM (inactive) | > 100 µM (inactive) | – | – | –
21 | O=c1[nH]nc2ccccc2c1Cl | 15.7 µM (inactive) | 14.6 µM (inactive) | – | 6.92 µM (inactive) | 12.9 µM (inactive) | 14.5 µM (inactive) | – | – | –
22 | NC(=O)c1ccccc1NC(=O)C(=O)C(C(=O)c1ccc2ccccc2c1)C1OC(=O)c2ccccc21 (stereo not given) | 1.34 µM (inactive) | 28.3 µM (inactive) | 8.17 µM (inactive) | 11.1 µM (inactive) | – | 2.59 µM (inactive) | – | – | –
23 | O=c1[nH]c(-c2ccccc2)nc2cc([N+](=O)[O-])c(/C(Cl)=C/c3ccccc3)cc12 | – | 33.7 µM (inactive) | 16.4 µM (inactive) | 37.8 µM (inactive) | – | – | – | – | –
24 | COC1=CC(=C(C#N)/C(=N\c2ccccc2)SC)C=C(OC)C1=O | > 100 µM (inactive) | – | 17.5 µM (inactive) | 70.6 µM (inactive) | > 100 µM (inactive) | – | – | – | –
25 | Nc1ccc2c(c1)Oc1c(F)c(F)cc3c(=O)c(C(=O)O)cn-2c13 | 51.5 µM (inactive) | 53.6 µM (inactive) | 41.5 µM (inactive) | 34.9 µM (inactive) | – | – | – | – | –
26 | Cc1c(Cl)ccc2c1NC(=O)C2(O)C1Cc2ccccc2C1=O (stereo not given) | > 100 µM (inactive) | > 100 µM (inactive) | 41.1 µM (inactive) | > 100 µM (inactive) | – | – | – | – | –
27 | CCCO/S(=N\S(=O)(=O)c1ccccc1)c1ccccc1[N+](=O)[O-] (stereo not given) | – | > 100 µM (inactive) | > 100 µM (inactive) | > 100 µM (inactive) | > 100 µM (inactive) | > 100 µM (inactive) | – | – | –
28 | [N-]=[N+]=NC(c1cn(C2CC(O)C(CO)O2)c(=O)[nH]c1=O)C(Cl)Br (stereo not given) | 47.2 µM (inactive) | > 100 µM (inactive) | > 100 µM (inactive) | > 100 µM (inactive) | – | – | – | – | –
29 | Cc1ccccc1NC(=O)CC(=O)n1nc(-c2ccccc2)c(/N=N/c2ccc([N+](=O)[O-])cc2)c1-c1ccccc1 | 16.5 µM (inactive) | 16.7 µM (inactive) | 24.9 µM (inactive) | – | 12.4 µM (inactive) | 21.8 µM (inactive) | – | – | –
30 | CC1=C(C(=O)NCc2ccccc2)C(c2ccccc2C)C(C(=O)NCc2ccccc2)=C(C)N1 | > 53 µM (inactive) | 28.4 µM (inactive) | 29.5 µM (inactive) | 33 µM (inactive) | 42.1 µM (inactive) | – | – | – | –
31 | COC(=O)C(=O)C(CC(=O)Nc1ccc(C)cc1)C(=O)OC (stereo not given) | > 100 µM (inactive) | > 100 µM (inactive) | > 100 µM (inactive) | > 100 µM (inactive) | > 100 µM (inactive) | > 100 µM (inactive) | – | – | –
32 | Clc1ccccc1C1=NN(c2ccccc2)C2c3ccccc3OCC12 (stereo not given) | 27.8 µM (inactive) | 73.3 µM (inactive) | 66.7 µM (inactive) | > 100 µM (inactive) | > 100 µM (inactive) | > 100 µM (inactive) | – | – | –
33 | CC1(C)[C@@H]2C[C@H]1C(Cc1ccccc1C[C@H]1c3cc(-c4ccccn4)ncc3[C@H]3C[C@@H]1C3(C)C)c1cc(-c3ccccn3)ncc12 (stereo not given in full) | – | – | – | – | – | – | 0.716 µM (active) | 0.375 µM (active) | 0.587 µM (active)
34 | CC(C)C1COC(c2cccc(C3=N[C@@H](C(C)C)CO3)n2)=N1 (stereo not given in full) | – | > 100 µM (inactive) | > 100 µM (inactive) | > 100 µM (inactive) | > 100 µM (inactive) | > 100 µM (inactive) | – | – | –
35 | COc1ccc2[nH]c3c(O)nncc3c2c1 | > 100 µM (inactive) | – | > 100 µM (inactive) | > 100 µM (inactive) | – | – | – | – | –
